Measurements from US11357719B2, “Method for obtaining a diglycoside-enriched Armeria maritima extract, and use thereof in cosmetics” (BIOTECHMARINE, priority 2016, dated 2022).
Several values for one entry are separate records, joined by “and”; a condition that tells them apart may be missing. Equal entries are not always repeated.

Key:
[1] = test system: purified collagenase; assay: Anti-collagenase activity, EnzCheck gelatinase/collagenase Assay Kit (cell-free, fluorimetry); format: biochemical, Clostridium Histolyticum; details: for Fluorescence: 2 h incubation at room temperature, blank subtracted; for Inhibition: relative to control group
Description: A purified collagenase is used and the degradation of its pro-fluorescent substrate is monitored by fluorimetry.
The anti-collagenase activity is evaluated using a commercially available kit (EnzCheck™ gelatinase/collagenase Assay Kit, Molecular Probes, reference E-12055).
This is a test based on a cell-free biochemical evaluation using a purified collagenase from a […] (Clostridium Histolyticum) and a purified gelatin from porcine skin, purified type I collagen from bovine skin or purified type IV collagen from human placenta. […] The increase in the fluorescence is proportional to the MMP activity. A decrease in this fluorescence is expected in the presence of anti-MMP active agents. The test is validated using a reference anti-MMP inhibitor provided in the kit, 1,10-phenanthroline, tested at 0.01% and 0.001%.
The products are placed on a 96-well plate in the following manner:
The products are left to incubate for two hours at room temperature in darkness, then the fluorescence is determined (Excitation 495 nm; Emission: 515 nm). Each test is repeated three times. For each sample, the values are subtracted from the blank test. The percentage inhibition corresponds to the ratio of the mean of the collagenase activity obtained for each extract to the mean of the collagenase activity of the control group.

[2] = test system: normal human fibroblasts; assay: Phototoxicity evaluation based on OECD test no. 432 (in vitro 3T3 NRU phototoxicity test), MTT viability; format: cell-based
Description: This evaluation is carried out based on the experimental conditions of test no. 432, entitled “in vitro 3T3 NRU phototoxicity test” from the OECD guidelines for testing chemicals, regarding conditions related to culture kinetics and to the acceptable dosage limit for Chlopromazine (CPZ). This guideline describes a method for evaluating photo-cytotoxicity by the relative reduction in the viability of the cells exposed to the chemical product in the presence or absence of light.
A pool of normal human fibroblasts of Caucasian type is used and amplified for five days in a 75 cm^2 flask in specific culture medium containing 10% FBS*. The cells are then seeded in culture wells of a 96-well plate (4 wells/condition), at 10 000 cells/well, in 200 μl of specific culture medium containing 10% FBS (Fetal Bovine Serum). 24 h after seeding, the cells are treated with the products for the test, prepared in EBSS (Earle's balance salt Solution) for one hour. At the end of this incubation, the cells are exposed (+irr) or not exposed (−irr) to a dose of 1 J/cm^2 of UVA, in the presence of the products being tested. At the end of this exposure, the cell layers are rinsed then brought back into contact with specific culture medium containing 2% of FBS. 24 h after this change, the cell viability is evaluated using the MTT method (colorimetric assay, visualized at 540 nm). The results are expressed as percentage viability relative to the control. The following parameters are deduced therefrom:
EC50: Concentration of active agent inducing 50% toxicity (−irr) or phototoxicity (+irr)
PIF (photo-irradiation factor): EC50(−irr)/EC50(+irr)
2<PIF<5: Probable phototoxicity

Row | Compound | Fluorescence ([1]; product at 0.001%) | Inhibition ([1]; product at 0.001%) | Fluorescence ([1]; product at 0.01%) | Inhibition ([1]; product at 0.01%) | PIF (photo-irradiation factor): EC50(−irr)/EC50(+irr) ([2]; PIF<2 no phototoxicity, 2<PIF<5 probable phototoxicity, PIF>5 phototoxicity) | EC50(+irr): concentration of active agent inducing 50% phototoxicity ([2]; exposed to 1 J/cm^2 of UVA, MTT viability 24 h after) | EC50(−irr): concentration of active agent inducing 50% toxicity ([2]; not exposed to UVA, MTT viability 24 h after)
1 | c1cnc2c(c1)ccc1cccnc12 [1,10-phenanthroline] | 37.13 AU and 24.41 AU | 66% and 76% | 0.91 AU and 1.07 AU | 99% |  |  | 
2 | CN(C)CCCN1c2ccccc2Sc2ccc(Cl)cc21 [CPZ, Chlopromazine] |  |  |  |  | 89.2 | 0.25 | 22.30
